Measurements: patent publication US6057311A, “Benzodiazonine derivatives binding to cholecystokinin or gastrin receptors” (James Black Foundation Limited, priority 1996, dated 2000)

Tests used:
[1] = target: T1, CCKB receptor (Mus musculus, UniProt P56481); test: radioligand binding assay at the CCKB receptor in mouse cortical membranes ([125I]-CCK8S); conditions: [125I]-CCK8S 200 pM, 150 min at 21±3° C.; for pKi (Mouse cortex): pH 7.2; for Ki: pH 7.2, read-out: pKi (Mouse cortex) (converted)
T1 construct: The cortex was dissected, weighed and homogenised in 40 ml ice-cold buffer; tissue Charles River (animals); host or cells: cerebral cortex of male CD1 mice, membranes
T1 sequence (P56481 1-453): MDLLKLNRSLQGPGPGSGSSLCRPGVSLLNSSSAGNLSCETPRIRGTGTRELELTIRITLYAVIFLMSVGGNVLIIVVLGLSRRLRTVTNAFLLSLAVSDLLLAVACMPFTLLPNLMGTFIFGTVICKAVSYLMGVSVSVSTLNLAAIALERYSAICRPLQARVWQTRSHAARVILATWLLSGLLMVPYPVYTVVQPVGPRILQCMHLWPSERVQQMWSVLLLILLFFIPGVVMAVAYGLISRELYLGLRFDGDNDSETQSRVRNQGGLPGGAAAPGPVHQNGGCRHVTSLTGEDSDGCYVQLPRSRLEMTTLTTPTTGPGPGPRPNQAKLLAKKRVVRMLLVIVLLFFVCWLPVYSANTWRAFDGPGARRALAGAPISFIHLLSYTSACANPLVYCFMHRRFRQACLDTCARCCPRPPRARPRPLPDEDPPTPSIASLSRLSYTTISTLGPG
Procedure: The compounds of the examples were tested for binding at the CCKB receptor in mouse cortical membranes by means of a radioligand binding assay. The procedure was as follows:
The whole brains from male mice (CD1 22-25 g; Charles River) were removed and placed in ice-cold buffer (pH7.2@21±3° C.) of the following composition (mM); 10 HEPES, 130 NaCl, 4.7 KCl, 5 MgCl2, 1 EDTA and containing 0.25 g.1^-1 bacitracin. The cortex was dissected, weighed and homogenised in 40 ml ice-cold buffer using a Teflon-in-glass homogeniser. The homogenate was centrifuged at 39,800 g for 20 min at 4° C., the supernatant discarded and the pellet resuspended by homogenisation in fresh buffer. The homogenate was recentrifuged (39,800 g; 20 min @4° C.) and the final pellet was resuspended in HEPES buffer to give a tissue concentration of 2 mg.ml^-1 (original wet weight).
The membranes (400 μl) were incubated for 150 min at 21±3° C. in a final volume of 0.5 ml with HEPES buffer containing [^125 I]-CCK8S (0.05 ml; 200 pM NEN 2200 Ci.mmol^-1) and competing compound. Total and non-specific binding of [^125 I]-CCK8S were defined using 0.05 ml of buffer and 0.05 ml of […] L-365,260, respectively. The assay was terminated by rapid filtration through pre-soaked Whatman GF/B filters using a Brandell Cell harvester. The filters were washed (3×3 ml) with ice-cold 50 mM Tris-HCl (pH7.4@4° C.) and bound radioactivity determined by counting (1 min.) in a gamma-counter.

[2] = target: T2, CCKA (Cavia porcellus, UniProt Q63931); test: CCKA binding assay, guinea pig pancreas membranes ([125I]-CCK8(S)); conditions: [125I]-CCK8(S) 200 pM, 0.375 μM PD134,308, 150 min at 21±3° C.; for pKi (Guinea pig pancreas): pH 7.2; for Ki: pH 7.2, read-out: pKi (Guinea pig pancreas) (converted)
T2 construct: The pancreatata were removed from male guinea-pigs; from tissue; host or cells: pancreas of male Dunkin Hartley guinea pigs, membranes
T2 sequence (Q63931 1-430): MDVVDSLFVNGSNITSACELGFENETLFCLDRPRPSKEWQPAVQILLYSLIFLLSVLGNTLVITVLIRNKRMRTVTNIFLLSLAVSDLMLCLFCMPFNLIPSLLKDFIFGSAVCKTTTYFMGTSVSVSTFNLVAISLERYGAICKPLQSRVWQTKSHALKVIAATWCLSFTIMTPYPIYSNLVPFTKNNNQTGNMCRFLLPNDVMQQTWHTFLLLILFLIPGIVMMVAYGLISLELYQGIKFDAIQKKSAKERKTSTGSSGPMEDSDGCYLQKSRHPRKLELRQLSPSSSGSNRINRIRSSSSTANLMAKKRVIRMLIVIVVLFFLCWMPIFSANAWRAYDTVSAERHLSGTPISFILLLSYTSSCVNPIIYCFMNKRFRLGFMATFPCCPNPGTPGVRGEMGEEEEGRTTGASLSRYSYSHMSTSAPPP
Procedure: The compounds of the examples were also tested in a CCKA binding assay as follows:
The pancreatata were removed from male guinea-pigs (200-300 g; Dunkin Hartley) and placed in ice-cold HEPES buffer (pH 7.2@21±3° C.). The pancreatata were homogenised in 40 ml ice-cold HEPES buffer using a polytron (Brinkmann, PT10, setting 10) 4×1 second. The homogenate was centrifuged at 39,800 g for 15 min at 4° C. The supernatant was discarded and the pellet re-suspended using a Teflon-in-glass homogeniser in 20 volumes of fresh buffer and re-centrifuged as above. The final pellet was re-suspended using a Teflon-in-glass homogeniser to a tissue concentration of 1 mg.ml^-1 (original wet weight), and filtered through 500 μm pore-size Nytex mesh.
The membranes (400 μl; containing 0.375 μM PD134,308) were incubated for 150 minutes at 21±3° C. in a final volume of 0.5 ml with HEPES buffer containing [^125 I]-CCK8 (S) (50 μl; 200 pM) and competing compound. Total and non-specific binding of [^125 I]-CCK8 (S) were defined using 50 μl of buffer and 50 μl of 100 nM L-364,718 respectively. The assay was terminated by rapid filtration through pre-soaked Whatman GF/B filters using a Brandell Cell Harvester. The filters were washed (3×3 ml) with ice-cold 50 mM Tris HCl (pH 7.4 at 4° C.) and bound radioactivity was determined by counting (1 min) in a gamma counter.

Compound | pKi (Mouse cortex) [1] | pKi (Guinea pig pancreas) [2] | Ki [1] | Ki [2]
1-benzyl-7-hydroxy-4-(3-methylphenyl)carbamyl-2-oxo-2,3,4,5,6,7-hexahydro- 1H-1,4-benzodiazonine (isomer 1) [Example 7] | 5.0 | 5.8 | – | –
Cc1cccc(NC(=O)N2CCC(O)c3ccccc3N(Cc3ccccc3)C(=O)C2)c1 (single isomer, unassigned; isomer 2) [Example 8, 1-benzyl-7-hydroxy-4-(3-methylphenyl)carbamyl-2-oxo-2,3,4,5,6,7-hexahydro-1H-1,4-benzodiazonine (isomer 2)] | – | – | 10 µM | 1 µM
Cc1cccc(NC(=O)N2CCC(=O)c3ccccc3N(CC(=O)OC(C)(C)C)C(=O)C2)c1 [Example 1, 1-tert-butyloxycarbonylmethyl-4-(3-methylphenyl)carbamyl-2,7-dioxo-2,3,4,5,6,7-hexahydro-1H-1,4-benzodiazonine] | – | – | 10 µM | 0.2 µM
CC(C)(C)OC(=O)CN1C(=O)CN(C(=O)Nc2ccc(Cl)c(Cl)c2)CCC(=O)c2ccccc21 [Example 2, 1-tert-butyloxycarbonylmethyl-4-(3,4-dichlorophenyl)-carbamyl-2,7-dioxo-2,3,4,5,6,7-hexahydro-1H-1,4-benzodiazonine] | – | – | 1.26 µM | 0.0501 µM
Cc1cccc(NC(=O)N2CCC(=O)c3ccccc3N(Cc3ccccc3)C(=O)C2)c1 [Example 3, 1-benzyl-4-(3-methylphenyl)carbamyl-2,7-dioxo-2,3,4,5,6,7-hexahydro-1H-1,4-benzodiazonine] | – | – | 7.94 µM | 0.316 µM
CCOC(=O)CN1C(=O)CN(C(=O)Nc2cccc(C)c2)CCC(=O)c2ccccc21 [Example 4, 1-ethoxycarbonylmethyl-4-(3-methylphenyl)carbamyl-2,7-dioxo-2,3,4,5,6,7-hexahydro-1H-1,4-benzodiazonine] | – | – | 10 µM | 3.16 µM
Cc1cccc(NC(=O)N2CCC(=O)c3ccccc3NC(=O)C2)c1 [Example 5, 4-(3-methylphenyl)carbamyl-2,7-dioxo-2,3,4,5,6,7-hexahydro-1H-1,4-benzodiazonine] | – | – | 10 µM | 5.01 µM
Cc1cccc(NC(=O)N2CCC(=O)c3ccccc3N(CC(=O)N3CCCC3)C(=O)C2)c1 [Example 6, 4-(3-methylphenyl)carbamyl-2,7-dioxo-1-pyrrolidinoyl-methyl-2,3,4,5,6,7-hexahydro-1H-1,4-benzodiazonine] | – | – | 10 µM | 5.01 µM

Continued, values first:

pKi (Mouse cortex) [1] | pKi (Guinea pig pancreas) [2] | Ki [1] | Ki [2] | Compound
– | – | 10 µM | 6.31 µM | O=C(O)CCC(=O)N1CCC(=O)c2ccccc2N(Cc2ccccc2)C(=O)C1CC12CC3CC(CC(C3)C1)C2 (racemic) [Example 33, (R/S)-3-(1-adamantyl)methyl-1-benzyl-4-(2-carboxy)ethylcarbonyl-2,7-dioxo-2,3,4,5,6,7-hexahydro-1H-1,4-benzodiazonine]
– | – | 3.98 µM | 2.51 µM | CC(=O)N1CCC(=O)c2ccccc2N(Cc2ccccc2)C(=O)C1CC12CC3CC(CC(C3)C1)C2 (racemic) [Example 34, (R/S)-4-acetyl-3-(1-adamantyl)methyl-1-benzyl-2,7-dioxo-2,3,4,5,6,7-hexahydro-1H-1,4-benzodiazonine]
– | – | 2.51 µM | 7.94 µM | Nc1cccc(CN2C(=O)C(CC34CC5CC(CC(C5)C3)C4)N(C(=O)CC(=O)O)CCC(=O)c3ccccc32)c1 (racemic) [Example 35, (R/S)-3-(1-adamantyl)methyl-1-(3-amino)benzyl-4-carboxymethylcarbonyl-2,7-dioxo-2,3,4,5,6,7-hexahydro-1H-1,4-benzodiazonine]
– | – | 0.398 µM | 12.6 µM | CC(=O)N1[C@H](CC23CC4CC(CC(C4)C2)C3)C(=O)N(Cc2ccccc2)c2ccc(F)cc2C(=O)C[C@H]1C(=O)NCC(=O)O (relative stereo) [Example 61, (+/-)-trans-4-acetyl-3-(1-adamantyl)methyl-1-benzyl-5-carboxymethylaminocarbonyl-2,7-dioxo-9-fluoro-2,3,4,5,6,7-hexahydro-1H-1,4-benzodiazonine]
5.0 | 5.0 | – | – | CC(=O)N1[C@H](CC23CC4CC(CC(C4)C2)C3)C(=O)N(Cc2ccccc2)c2ccccc2C(=O)C[C@H]1C(=O)N1CCC[C@H]1C(=O)O (single isomer, unassigned; isomer 1) [Example 27]
5.5 | 5.2 | – | – | CC(=O)N1[C@H](CC23CC4CC(CC(C4)C2)C3)C(=O)N(Cc2ccccc2)c2ccccc2C(=O)C[C@H]1C(=O)N(C)CC(=O)O (single isomer, unassigned; isomer 1) [Example 29]
5.4 | 4.6 | – | – | CC(=O)N1[C@H](CC23CC4CC(CC(C4)C2)C3)C(=O)N(Cc2ccccc2)c2ccccc2C(=O)C[C@H]1C(=O)N1CCC[C@H]1C(=O)O (single isomer, unassigned; isomer 2) [Example 28]
5.0 | 5.1 | – | – | CC(=O)N1[C@H](CC23CC4CC(CC(C4)C2)C3)C(=O)N(Cc2ccccc2)c2ccccc2C(=O)C[C@H]1C(=O)N(C)CC(=O)O (single isomer, unassigned; isomer 2) [Example 30]
– | – | 3.98 µM | 0.316 µM | C=C1CCN(C(=O)Nc2cccc(C)c2)CC(=O)N(Cc2ccccc2)c2ccccc21 [Example 9, 1-benzyl-7-methylene-4-(3-methylphenyl)carbamyl-2-oxo-2,3,4,5,6,7-hexahydro-1H-1,4-benzodiazonine]
– | – | 2.51 µM | 0.316 µM | Cc1cccc(NC(=O)N2CCC(C)c3ccccc3N(Cc3ccccc3)C(=O)C2)c1 (centres unmarked) [Example 10, 1-benzyl-7-methyl-4-(3-methylphenyl)carbamyl-2-oxo-2,3,4,5,6,7-hexahydro-1H-1,4-benzodiazonine]
– | – | 1 µM | 5.01 µM | CC(=O)N1[C@H](CC23CC4CC(CC(C4)C2)C3)C(=O)N(Cc2ccccc2)c2ccccc2C(=O)C[C@H]1C(=O)O [Example 11, (3R,5S) 4-acetyl-3-[(1-adamantyl)methyl]-1-benzyl-2,7-dioxo-2,3,4,5,6,7-hexahydro-1H-1,4-benzodiazonine-5-carboxylate]
